pIC50: −log10 of the molar value.
Assays:
[1] = tested on: phosphorylated AKT Ser473 (pAKT S473), mTORC2 activity, PC3 cells; test: mTOR target engagement assay, immunofluorescent cell-based, pAKT S473 readout (mTORC2 activity); conditions: Homo sapiens, PC-3, Table 3-1; PC3 cells
Procedure, shortened: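 After blocking, cells were stained overnight at 4 °C with anti-pAKT S473 antibody, then a fluorescent secondary; inhibition was read as reduced fluorescence intensity.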

[2] = tested on: phosphorylated 4E-BP1 Thr37/46 (p4E-BP1 Thr37/46), mTORC1 activity, PC3 cells; test: mTOR target engagement assay, immunofluorescent cell-based, p4E-BP1 Thr37/46 readout (mTORC1 activity); conditions: Homo sapiens, PC-3, Table 3-1; PC3 cells; read-out: p4E-BP1 Thr37/46 IC50
Procedure, shortened: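 Seed PC3 cells overnight; treat with compound dilutions for ninety minutes at 37° C; fix with glyoxal and block; stain with anti-p4E-BP1 Thr37/46 overnight at 4° C, then fluorescent secondary; read fluorescence and fit IC50 against DMSO-only controls.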

Compound	pIC50 [1]	pIC50 [2]
CS(=O)(=O)c1c([C@@H]2C[C@H]3CC[C@@H](C2)N3C(=O)c2nnc[nH]2)nc2c(-c3ccc(-c4ccccn4)cc3)cnn2c1N [Compound 3.31, ((1R,3s,5S)-3-(7-amino-6-(methylsulfonyl)-3-(4-(pyridin-2-yl)phenyl)pyrazolo[1,5-a]pyrimidin-5-yl)-8-azabicyclo[3.2.1]octan-8-yl)(4H-1,2,4-triazol-3-yl)methanone]	7.00 to 9.00	6.00 to 7.00
COc1ccc(-c2ccc(-c3cnn4c(N)c(S(C)(=O)=O)c([C@@H]5C[C@H]6CC[C@@H](C5)N6C(=O)c5nnc[nH]5)nc34)cn2)c(F)c1 [Compound 3.32, ((1R,3s,5S)-3-(7-amino-3-(6-(2-fluoro-4-methoxyphenyl)pyridin-3-yl)-6-(methylsulfonyl)pyrazolo[1,5-a]pyrimidin-5-yl)-8-azabicyclo[3.2.1]octan-8-yl)(4H-1,2,4-triazol-3-yl)methanone]	7.00 to 9.00	7.00 to 9.00
COc1ccc(-c2ccc(-c3cnn4c(N)c(S(C)(=O)=O)c([C@@H]5C[C@H]6CC[C@@H](C5)N6C(=O)c5nnc[nH]5)nc34)cn2)cc1 [Compound 3.33, ((1R,3s,5S)-3-(7-amino-3-(6-(4-methoxyphenyl)pyridin-3-yl)-6-(methylsulfonyl)pyrazolo[1,5-a]pyrimidin-5-yl)-8-azabicyclo[3.2.1]octan-8-yl)(4H-1,2,4-triazol-3-yl)methanone]	7.00 to 9.00	7.00 to 9.00
COc1ccc(-c2ccc(-c3cnn4c(N)c(S(C)(=O)=O)c([C@@H]5C[C@H]6CC[C@@H](C5)N6C(=O)c5nnc(C)[nH]5)nc34)cn2)cc1 [Compound 3.34, ((1R,3s,5S)-3-(7-amino-3-(6-(4-methoxyphenyl)pyridin-3-yl)-6-(methylsulfonyl)pyrazolo[1,5-a]pyrimidin-5-yl)-8-azabicyclo[3.2.1]octan-8-yl)(5-methyl-4H-1,2,4-triazol-3-yl)methanone]	7.00 to 9.00	7.00 to 9.00
COc1ccc(-c2ccc(-c3cnn4c(N)c(S(C)(=O)=O)c([C@@H]5C[C@H]6CC[C@@H](C5)N6C(=O)c5nnc[nH]5)nc34)cn2)s1 [Compound 3.35, ((1R,3s,5S)-3-(7-amino-3-(6-(5-methoxythiophen-2-yl)pyridin-3-yl)-6-(methylsulfonyl)pyrazolo[1,5-a]pyrimidin-5-yl)-8-azabicyclo[3.2.1]octan-8-yl)(4H-1,2,4-triazol-3-yl)methanone]	7.00 to 9.00	7.00 to 9.00
COc1ccc(-c2ccc(-c3cnn4c(N)c(S(C)(=O)=O)c([C@@H]5C[C@H]6CC[C@@H](C5)N6C(=O)CO)nc34)cn2)cc1 [Compound 3.36, 1-((1R,3s,5S)-3-(7-amino-3-(6-(4-methoxphenyl)pyridin-3-yl)-6-(methylsulfonyl)pyrazolo[1,5-a]pyrimidin-5-yl)-8-azabicyclo[3.2.1]octan-8-yl)-2-hydroxyethanone]	7.00 to 9.00	7.00 to 9.00
COc1ccc(-c2ccc(-c3cnn4c(N)c(S(C)(=O)=O)c([C@@H]5C[C@H]6CC[C@@H](C5)N6C(=O)c5nnc[nH]5)nc34)cn2)cc1F [Compound 3.37, ((1R,3s,5S)-3-(7-amino-3-(6-(3-fluoro-4-methoxyphenyl)pyridin-3-yl)-6-(methylsulfonyl)pyrazolo[1,5-a]pyrimidin-5-yl)-8-azabicyclo[3.2.1]octan-8-yl)(4H-1,2,4-triazol-3-yl)methanone]	7.00 to 9.00	7.00 to 9.00
COc1ccc(-c2ccc(-c3cnn4c(N)c(S(C)(=O)=O)c([C@@H]5C[C@H]6CC[C@@H](C5)N6C(=O)CO)nc34)cn2)cc1F [Compound 3.38, 1-((1R,3s,5S)-3-(7-amino-3-(6-(3-fluoro-4-methoxyphenyl)pyridin-3-yl)-6-(methylsulfonyl)pyrazolo[1,5-a]pyrimidin-5-yl)-8-azabicyclo[3.2.1]octan-8-yl)-2-hydroxyethanone]	7.00 to 9.00	6.00 to 7.00
COc1ccc(-c2ccc(-c3cnn4c(N)c(S(C)(=O)=O)c([C@@H]5C[C@H]6CC[C@@H](C5)N6C(=O)c5nnc[nH]5)nc34)cn2)cc1OC [Compound 3.39, ((1R,3s,5S)-3-(7-amino-3-(6-(3,4-dimethoxyphenyl)pyridin-3-yl)-6-(methylsulfonyl)pyrazolo[1,5-a]pyrimidin-5-yl)-8-azabicyclo[3.2.1]octan-8-yl)(4H-1,2,4-triazol-3-yl)methanone]	6.00 to 7.00	6.00 to 7.00
Cn1ccc(-c2ccc(-c3cnn4c(N)c(S(C)(=O)=O)c([C@@H]5C[C@H]6CC[C@@H](C5)N6C(=O)c5nnc[nH]5)nc34)cn2)n1 [Compound 3.40, ((1R,3s,5S)-3-(7-amino-3-(6-(1-methyl-1H-pyrazol-3-yl)pyridin-3-yl)-6-(methylsulfonyl)pyrazolo[1,5-a]pyrimidin-5-yl)-8-azabicyclo[3.2.1]octan-8-yl)(4H-1,2,4-triazol-3-yl)methanone]	7.00 to 9.00	7.00 to 9.00
Cn1ccc(-c2ccc(-c3cnn4c(N)c(S(C)(=O)=O)c([C@@H]5C[C@H]6CC[C@@H](C5)N6C(=O)c5nnc[nH]5)nc34)c[n+]2[O-])n1 [Compound 3.41, 5-(5-((1R,3s,5S)-8-(4H-1,2,4-triazole-3-carbonyl)-8-azabicyclo[3.2.1]octan-3-yl)-7-amino-6-(methylsulfonyl)pyrazolo[1,5-a]pyrimidin-3-yl)-2-(1-methyl-1H-pyrazol-3-yl)pyridine 1-oxide]	7.00 to 9.00	6.00 to 7.00
Cn1nnc(-c2ccc(-c3cnn4c(N)c(S(C)(=O)=O)c([C@@H]5C[C@H]6CC[C@@H](C5)N6C(=O)c5nnc[nH]5)nc34)cn2)n1 [Compound 3.42, ((1R,3a,5S)-3-(7-amino-3-(6-(2-methyl-2H-tetrazol-5-yl)pyridin-3-yl)-6-(methylsulfonyl)pyrazolo[1,5-a]pyrimidin-5-yl)-8-azabicyclo[3.2.1]octan-8-yl)(4H-1,2,4-triazol-3-yl)methanone]	6.00 to 7.00	5.00 to 6.00
Cn1nnc(-c2ccc(-c3cnn4c(N)c(S(C)(=O)=O)c([C@@H]5C[C@H]6CC[C@@H](C5)N6C(=O)CO)nc34)cn2)n1 [Compound 3.43, 1-((1R,3a,5S)-3-(7-amino-3-(6-(2-methyl-2H-tetrazol-5-yl)pyridin-3-yl)-6-(methylsulfonyl)pyrazolo[1,5-a]pyrimidin-5-yl)-8-azabicyclo[3.2.1]octan-8-yl)-2-hydroxyethanone]	5.00 to 6.00	< 5.00
CS(=O)(=O)c1c([C@@H]2C[C@H]3CC[C@@H](C2)N3C(=O)c2nnc[nH]2)nc2c(-c3ccc(-c4ccc(F)c(F)c4)nc3)cnn2c1N [Compound 3.44, ((1R,3s,5S)-3-(7-amino-3-(6-(3,4-difluorophenyl)pyridin-3-yl)-6-(methylsulfonyl)pyrazolo[1,5-a]pyrimidin-5-yl)-8-azabicyclo[3.2.1]octan-8-yl)(4H-1,2,4-triazol-3-yl)methanone]	7.00 to 9.00	7.00 to 9.00
Cc1ccc(-c2ccc(-c3cnn4c(N)c(S(C)(=O)=O)c([C@@H]5C[C@H]6CC[C@@H](C5)N6C(=O)c5nnc[nH]5)nc34)cn2)cc1F [Compound 3.45, ((1R,3s,5S)-3-(7-amino-3-(6-(3-fluoro-4-methylphenyl)pyridin-3-yl)-6-(methylsulfonyl)pyrazolo[1,5-a]pyrimidin-5-yl)-8-azabicyclo[3.2.1]octan-8-yl)(4H-1,2,4-triazol-3-yl)methanone]	7.00 to 9.00	7.00 to 9.00
